Drawing on patent US9273058B2 (BRISTOL-MYERS SQUIBB COMPANY, priority 2013, dated 2016), this text covers IC50 for 26 compounds.

The target in one assay is CK1ε (Homo sapiens, UniProt P49674). In words: CK1ε kinase assay (Caliper LabChip electrophoretic separation of fluoresceinated peptide substrate and product). Format: biochemical. To be noted: 200 pM CK1ε, 50 μM ATP, 1.5 μM peptide, 22 hours at room temperature; read-out: CK1ε IC50 range. In outline:
(§1)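 Eleven-concentration compound series in kinase reactions run for 22 hours at room temperature. Terminated with EDTA, with product conversion read by electrophoretic separation. Non-linear regression gave IC50.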

The next assay concerns the target CK1δ (Homo sapiens, UniProt P48730). The assay can be described thus: CK1δ kinase assay (Caliper LabChip electrophoretic separation of fluoresceinated peptide substrate and product). To be noted: 200 pM CK1δ, 50 μM ATP, 1.5 μM peptide, 22 hours at room temperature; read-out: CK1δ IC50 range. Format: biochemical. In outline:
as §1

The structures appear in SMILES notation.

What is called IC50 is the point on the concentration scale where inhibition reaches its midpoint.

Sequence of CK1ε (P49674 whole entry): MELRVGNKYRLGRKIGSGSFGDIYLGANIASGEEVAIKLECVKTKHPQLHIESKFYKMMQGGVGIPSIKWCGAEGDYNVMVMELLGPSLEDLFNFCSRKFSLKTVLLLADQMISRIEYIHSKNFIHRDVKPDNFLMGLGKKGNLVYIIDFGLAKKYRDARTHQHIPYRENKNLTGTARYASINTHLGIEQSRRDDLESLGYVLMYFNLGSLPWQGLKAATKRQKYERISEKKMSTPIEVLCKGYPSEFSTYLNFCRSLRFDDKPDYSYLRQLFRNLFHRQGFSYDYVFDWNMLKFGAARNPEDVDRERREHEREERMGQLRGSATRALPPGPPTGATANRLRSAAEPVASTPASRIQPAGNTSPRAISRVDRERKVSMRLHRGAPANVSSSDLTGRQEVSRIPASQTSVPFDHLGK
Sequence of CK1δ (P48730 whole entry): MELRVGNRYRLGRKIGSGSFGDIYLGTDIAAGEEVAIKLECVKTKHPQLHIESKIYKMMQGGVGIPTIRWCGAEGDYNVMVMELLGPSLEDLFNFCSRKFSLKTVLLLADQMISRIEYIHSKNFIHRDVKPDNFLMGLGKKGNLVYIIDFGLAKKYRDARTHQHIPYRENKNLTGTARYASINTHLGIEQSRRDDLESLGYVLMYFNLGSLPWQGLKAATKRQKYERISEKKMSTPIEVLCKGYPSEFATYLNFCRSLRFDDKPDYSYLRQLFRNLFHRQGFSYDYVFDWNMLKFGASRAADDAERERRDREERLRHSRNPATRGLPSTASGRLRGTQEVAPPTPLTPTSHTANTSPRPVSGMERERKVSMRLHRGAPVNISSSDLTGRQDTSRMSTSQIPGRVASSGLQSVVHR

Take `NC(=O)c1c(-c2cccc(Cl)c2)nn2c1CN(C(=O)NC13CCC(c4ccccc4)(CC1)CC3)CC2` [Compound A83, 2-(3-Chlorophenyl)-N^5-(4-phenylbicyclo[2.2.2]octan-1-yl)-6,7-dihydropyrazolo[1,5-a]pyrazine-3,5(4H)-dicarboxamide]: the IC50 at CK1ε and at CK1δ was 0.01 to 10 nM each time.

As for `NC(=O)c1c(-c2cccc(Cl)c2)nn2c1CN(C(=O)NC13CCCC(CCC1)C3)CC2` [Compound A84, N^5-((1r,5r)-Bicyclo[3.3.1]nonan-1-yl)-2-(3-chlorophenyl)-6,7-dihydropyrazolo[1,5-a]pyrazine-3,5(4H)-dicarboxamide], the IC50 on CK1ε and on CK1δ was 0.01 to 10 nM throughout.

For the compound `CC12CC3(C)CC(C)(C1)CC(NC(=O)N1CCn4nc(-c5cccc(Cl)c5)c(C(N)=O)c4C1)(C2)C3` [Compound A85, 2-(3-Chlorophenyl)-N^5-((3s,5s,7s)-3,5,7-trimethyladamantan-1-yl)-6,7-dihydropyrazolo[1,5-a]pyrazine-3,5(4H)-dicarboxamide], the 50% inhibitory concentration (IC50) on CK1ε and at CK1δ was 0.01 to 10 nM throughout.

Consider `NC(=O)c1c(-c2cccc(Cl)c2)nn2c1CN(C(=O)NC13C4C5C6C4C1C6C53)CC2` (stereo not shown) [Compound A86, N^5-(Cuban-1-yl)-2-(3-chlorophenyl)-6,7-dihydropyrazolo[1,5-a]pyrazine-3,5(4H)-dicarboxamide], for which the half-maximal inhibitory concentration (IC50) on CK1ε and at CK1δ was 0.01 to 10 nM in each case.

As for `N#CC12C3C4C1C1C2C3C41NC(=O)N1CCn2nc(-c3cccc(Cl)c3)c(C(N)=O)c2C1` (stereo not shown) [Compound A87, N^5-(4-Cyanocuban-1-yl)-2-(3-chlorophenyl)-6,7-dihydropyrazolo[1,5-a]pyrazine-3,5(4H)-dicarboxamide], the IC50 at CK1ε and on CK1δ was 0.01 to 10 nM throughout.

Regarding `NC(=O)c1c(-c2cccc(Cl)c2)nn2c1CN(C(=O)NC13C4C5C1C1C3C4C51F)CC2` (stereo not shown) [Compound A88, N^5-(4-Fluorocuban-1-yl)-2-(3-chlorophenyl)-6,7-dihydropyrazolo[1,5-a]pyrazine-3,5(4H)-dicarboxamide], the IC50 at CK1ε and at CK1δ was 0.01 to 10 nM in each case.

As for `NC(=O)c1c(-c2ccc(Cl)c(Cl)c2)nn2c1CN(C(=O)NC13CCC(c4ccc(F)cc4)(CC1)CC3)CC2` [Compound A89, 2-(3,4-Dichlorophenyl)-N^5-(4-(4-fluorophenyl)bicyclo[2.2.2]octan-1-yl)-6,7-dihydropyrazolo[1,5-a]pyrazine-3,5(4H)-dicarboxamide], the IC50 at CK1ε and at CK1δ was 0.01 to 10 nM each time.

Turning to `N#Cc1ccc(C23CCC(NC(=O)N4CCn5nc(-c6ccc(Cl)c(Cl)c6)c(C(N)=O)c5C4)(CC2)CC3)cc1` [Compound A90, N^5-(4-(4-Cyanophenyl)bicyclo[2.2.2]octan-1-yl)-2-(3,4-dichlorophenyl)-6,7-dihydropyrazolo[1,5-a]pyrazine-3,5(4H)-dicarboxamide], the half-maximal inhibitory concentration (IC50) at CK1ε and on CK1δ was 0.01 to 10 nM each time.

Regarding `CC12CC3(C)CC(C)(C1)CC(NC(=O)N1CCn4nc(-c5ccc(Cl)c(Cl)c5)c(C(N)=O)c4C1)(C2)C3` [Compound A91, 2-(3,4-Dichlorophenyl)-N^5-((3s,5s,7s)-3,5,7-trimethyladamantan-1-yl)-6,7-dihydropyrazolo[1,5-a]pyrazine-3,5(4H)-dicarboxamide], the IC50 at CK1ε and at CK1δ was 0.01 to 10 nM each time.

Consider `CC12CC3CC(C)(C1)CC(NC(=O)N1CCn4nc(-c5ccc(Cl)c(Cl)c5)c(C(N)=O)c4C1)(C3)C2` [Compound A92, 2-(3,4-Dichlorophenyl)-N^5-((1r,3R,5S,7r)-3,5-dimethyladamantan-1-yl)-6,7-dihydropyrazolo[1,5-a]pyrazine-3,5(4H)-dicarboxamide], for which the IC50 at CK1ε and on CK1δ was 0.01 to 10 nM in each case.

Consider `C[C@@]12C[C@H]3C[C@@](Cl)(C1)C[C@](NC(=O)N1CCn4nc(-c5ccc(Cl)c(Cl)c5)c(C(N)=O)c4C1)(C3)C2` [Compound A93, N^5-((1S,3R,5S,7R)-3-Chloro-5-methyladamantan-1-yl)-2-(3,4-dichlorophenyl)-6,7-dihydropyrazolo[1,5-a]pyrazine-3,5(4H)-dicarboxamide], for which the half-inhibitory concentration (IC50) at CK1ε and at CK1δ was 0.01 to 10 nM in each case.

As to `NC(=O)c1c(-c2cccc(F)c2)nn2c1CN(C(=O)NC13CCC(C(F)F)(CC1)CC3)CC2` [Compound A94, N^5-(4-(Difluoromethyl)bicyclo[2.2.2]octan-1-yl)-2-(3-fluorophenyl)-6,7-dihydropyrazolo[1,5-a]pyrazine-3,5(4H)-dicarboxamide], the half-maximal inhibitory concentration (IC50) on CK1ε and on CK1δ was 0.01 to 10 nM each time.

On to `NC(=O)c1c(-c2cccc(F)c2)nn2c1CN(C(=O)NC(CF)(CF)CF)CC2` [Compound A95, N^5-(1,3-Difluoro-2-(fluoromethyl)propan-2-yl)-2-(3-fluorophenyl)-6,7-dihydropyrazolo[1,5-a]pyrazine-3,5(4H)-dicarboxamide], for which the IC50 fell in the range of 10 to 100 nM on CK1ε and 0.01 to 10 nM on CK1δ.

Regarding `NC(=O)c1c(-c2ccc(F)c(Cl)c2)nn2c1CN(C(=O)NC1CC(F)(F)C1)C[C@@H]2CF` [Compound A114, (R)-2-(3-Chloro-4-fluorophenyl)-N^5-(3,3-difluorocyclobutyl)-7-(fluoromethyl)-6,7-dihydropyrazolo[1,5-a]pyrazine-3,5(4H)-dicarboxamide], the half-inhibitory concentration (IC50) at CK1ε and at CK1δ was 0.01 to 10 nM throughout.

For `C[C@H]1CN(C(=O)NC2CC(F)(F)C2)Cc2c(C(N)=O)c(-c3ccc(F)c(Cl)c3)nn21` [Compound A115, (S)-2-(3-Chloro-4-fluorophenyl)-N^5-(3,3-difluorocyclobutyl)-7-methyl-6,7-dihydropyrazolo[1,5-a]pyrazine-3,5(4H)-dicarboxamide], the concentration for half-maximal inhibition (IC50) on CK1ε and at CK1δ was 0.01 to 10 nM throughout.

Consider `NC(=O)c1c(-c2ccc(F)c(Cl)c2)nn2c1CN(C(=O)NC1CC(F)(F)C1)C[C@@H]2CO` [Compound A116, (R)-2-(3-Chloro-4-fluorophenyl)-N^5-(3,3-difluorocyclobutyl)-7-(hydroxymethyl)-6,7-dihydropyrazolo[1,5-a]pyrazine-3,5(4H)-dicarboxamide], for which the concentration for half-maximal inhibition (IC50) on CK1ε and at CK1δ was 0.01 to 10 nM throughout.

On to `CC(C)(C)NC(=O)N1Cc2c(C(N)=O)c(-c3ccc(F)c(Cl)c3)nn2C(C(C)(C)C)C1` (stereo not shown) [Compound A118, N^5-7-Di-tert-butyl-2-(3-chloro-4-fluorophenyl)-6,7-dihydropyrazolo[1,5-a]pyrazine-3,5(4H)-dicarboxamide], for which the IC50 at CK1ε and on CK1δ was 0.01 to 10 nM in each case.

In the case of `CC(C)(C)NC(=O)N1Cc2c(C(N)=O)c(-c3cccc(Cl)c3)nn2C2(CC2)C1` [Compound A129, N^5-(tert-Butyl)-2′-(3-chlorophenyl)-4′H-spiro[cyclopropane-1,7′-pyrazolo[1,5-a]pyrazine]-3′,5′(6′H)-dicarboxamide], the IC50 at CK1ε and on CK1δ was 0.01 to 10 nM in each case.

As for `CC(C)(C)NC(=O)N1Cc2c(C(N)=O)c(-c3cccc(F)c3)nn2C2(CC2)C1` [Compound A131, N^5′-(tert-Butyl)-2′-(3-fluorophenyl)-4′H-spiro[cyclopropane-1,7′-pyrazolo[1,5-a]pyrazine]-3′,5′(6′H)-dicarboxamide], the concentration for half-maximal inhibition (IC50) on CK1ε and at CK1δ was 10 to 100 nM each time.

With `CC(C)(C)NC(=O)N1Cc2c(C(N)=O)c(-c3ccc(F)c(Cl)c3)nn2C2(CC2)C1` [Compound A132, N^5-(tert-Butyl)-2′-(3-chloro-4-fluorophenyl)-4′H-spiro[cyclopropane-1,7′-pyrazolo[1,5-a]pyrazine]-3′,5′(6′H)-dicarboxamide], the IC50 at CK1ε and at CK1δ was 0.01 to 10 nM each time.

Regarding `NC(=O)c1c(-c2ccc(F)c(Cl)c2)nn2c1CN(C(=O)NC1CC(F)(F)C1)CC21CC1` [Compound A133, 2′-(3-Chloro-4-fluorophenyl)-N^5′-(3,3-difluorocyclobutyl)-4′H-spiro[cyclopropane-1,7′-pyrazolo[1,5-a]pyrazine]-3′,5′(6′H)-dicarboxamide], the IC50 on CK1ε and on CK1δ was 0.01 to 10 nM in each case.

For `CC(C)(C)NC(=O)N1Cc2c(C(N)=O)c(-c3ccc(F)c(Cl)c3)nn2C2(COC2)C1` [Compound A134, N^5′-(tert-Butyl)-2′-(3-chloro-4-fluorophenyl)-4′H-spiro[oxetane-3,7′-pyrazolo[1,5-a]pyrazine]-3′,5′(6′H)-dicarboxamide], the IC50 at CK1ε and at CK1δ was 0.01 to 10 nM throughout.

As to `CC(=O)N1CC2(C1)CN(C(=O)NC(C)(C)C)Cc1c(C(N)=O)c(-c3ccc(F)c(Cl)c3)nn12` [Compound A135, 1-Acetyl-N^5′-(tert-butyl)-2′-(3-chloro-4-fluorophenyl)-4′H-spiro[azetidine-3,7′-pyrazolo[1,5-a]pyrazine]-3′,5′(6′H)-dicarboxamide], the concentration for half-maximal inhibition (IC50) on CK1ε and at CK1δ was 0.01 to 10 nM in each case.

On to `CC(C)(C)NC(=O)N1Cc2c(C(N)=O)c(-c3ccc(F)c(Cl)c3)nn2C(CF)(CF)C1` [Compound A136], for which the IC50 at CK1ε and on CK1δ was 0.01 to 10 nM each time.

Take `NC(=O)c1c(-c2ccc(F)c(Cl)c2)nn2c1CN(C(=O)NC13CCC(F)(CC1)C3)CC2` [Compound A137, 2-(3-Chloro-4-fluorophenyl)-N^5-(4-fluorobicyclo[2.2.1]heptan-1-yl)-6,7-dihydropyrazolo[1,5-a]pyrazine-3,5(4H)-dicarboxamide]: the IC50 on CK1ε and at CK1δ was 0.01 to 10 nM in each case.

In the case of `NC(=O)c1c(-c2ccc(F)c(Cl)c2)nn2c1CN(C(=O)NC13CCC(CF)(CC1)C3)CC2` [Compound A138, 2-(3-Chloro-4-fluorophenyl)-N^5-(4-(fluoromethyl)bicyclo[2.2.1]heptan-1-yl)-6,7-dihydropyrazolo[1,5-a]pyrazine-3,5(4H)-dicarboxamide], the half-inhibitory concentration (IC50) on CK1ε and on CK1δ was 0.01 to 10 nM throughout.
